Reference: ChEMBL document CHEMBL5252536, “Discovery of VU0467485/AZ13713945: An M4 PAM Evaluated as a Preclinical Candidate for the Treatment of Schizophrenia” (ACS Med Chem Lett, 2017)

How the values were obtained:
[1] = Fraction unbound in rat brain incubated for 6 hrs by LC/MS/MS analysis; type: ADME, tissue-based
[2] = Oral bioavailability in Sprague-Dawley rat at 3 mg/kg by LC-MS/MS analysis; type: ADME, organism-based; conditions: in vivo
[3] = Toxicity in rat assessed as effect on somatomotor parameters at 56.6 mg/kg, po measured after 6 hrs by Irwin test; type: organism-based; conditions: in vivo
[4] = Apparent permeability across apical to basolateral side in human Caco-2 cells; type: ADME, cell-based
Rattus norvegicus = assay: Antipsychotic activity in amphetamine-induced hyperlocomotion activity in rat assessed as reversal of amphetamine-induced hyperlocomotion at 1 to 10 mg/kg, po preincubated for 30 mins followed by amphetamine addition and measured after 60 mins by open field test relative to control; type: functional; conditions: dose 1-10 mg/kg, time 90 min, 1.5 h
[5] = Elimination half life in Beagle dog at 3 mg/kg,po or 1 mg/kg,iv by LC-MS/MS analysis; type: ADME, organism-based, Canis lupus familiaris; conditions: in vivo, read-out: beta t1/2 (converted)
[6] = Terminal unbound brain concentration in rat model of amphetamine-induced hyperlocomotion activity at 1 to 10 mg/kg, po measured after 1.5 hrs; type: ADME, organism-based; conditions: in vivo, dose 1-10 mg/kg
[7] = Cmax in Beagle dog at 3 mg/kg,po by LC-MS/MS analysis; type: ADME, organism-based, Canis lupus familiaris; parameters: dose 3 mg/kg, route po; conditions: in vivo
[8] = Elimination half life in Sprague-Dawley rat at 3 mg/kg,po or 1 mg/kg,iv by LC-MS/MS analysis; type: ADME, organism-based; conditions: in vivo, read-out: beta t1/2 (converted)
[9] = molecular target: T1, Muscarinic acetylcholine receptor M4 (Rattus norvegicus) (UniProt P08485); assay: Positive allosteric modulator activity at rat M4 receptor expressed in CHO cells co-expressing Gqi5 assessed as maximal response to ACh by calcium mobilization assay relative to contol; type: cell-based; conditions: filed as positive allosteric modulator
T1 sequence (whole entry): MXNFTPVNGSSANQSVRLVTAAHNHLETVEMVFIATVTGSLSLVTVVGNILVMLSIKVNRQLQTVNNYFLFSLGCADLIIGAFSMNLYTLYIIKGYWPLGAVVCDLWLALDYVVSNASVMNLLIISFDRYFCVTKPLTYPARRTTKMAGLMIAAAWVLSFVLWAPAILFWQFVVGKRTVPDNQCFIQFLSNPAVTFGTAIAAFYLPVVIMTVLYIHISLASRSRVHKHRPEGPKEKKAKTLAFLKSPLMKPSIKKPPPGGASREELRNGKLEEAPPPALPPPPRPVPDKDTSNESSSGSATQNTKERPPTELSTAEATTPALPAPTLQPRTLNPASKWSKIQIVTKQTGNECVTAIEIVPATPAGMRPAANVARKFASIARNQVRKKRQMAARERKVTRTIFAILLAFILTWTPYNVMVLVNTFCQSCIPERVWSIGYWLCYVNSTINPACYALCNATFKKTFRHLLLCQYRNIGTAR

[10] = Ratio of drug concentration in Sprague-Dawley rat brain to plasma at 1 to 10 mg/kg, po by LC-MS/MS analysis; type: ADME, organism-based; conditions: dose 1-10 mg/kg, read-out: BPR
[11] = Genotoxicity in Salmonella typhimurium TA100 by Ames test; type: toxicity; conditions: salmonella enterica subsp. enterica serovar typhimurium
[12] = molecular target: T2, Muscarinic acetylcholine receptor M4 (Homo sapiens) (UniProt P08173); assay: Positive allosteric modulator activity at human M4 receptor expressed in CHO cells co-expressing Gqi5 assessed as maximal response to ACh by calcium mobilization assay relative to contol; type: cell-based; conditions: filed as positive allosteric modulator
T2 sequence (whole entry): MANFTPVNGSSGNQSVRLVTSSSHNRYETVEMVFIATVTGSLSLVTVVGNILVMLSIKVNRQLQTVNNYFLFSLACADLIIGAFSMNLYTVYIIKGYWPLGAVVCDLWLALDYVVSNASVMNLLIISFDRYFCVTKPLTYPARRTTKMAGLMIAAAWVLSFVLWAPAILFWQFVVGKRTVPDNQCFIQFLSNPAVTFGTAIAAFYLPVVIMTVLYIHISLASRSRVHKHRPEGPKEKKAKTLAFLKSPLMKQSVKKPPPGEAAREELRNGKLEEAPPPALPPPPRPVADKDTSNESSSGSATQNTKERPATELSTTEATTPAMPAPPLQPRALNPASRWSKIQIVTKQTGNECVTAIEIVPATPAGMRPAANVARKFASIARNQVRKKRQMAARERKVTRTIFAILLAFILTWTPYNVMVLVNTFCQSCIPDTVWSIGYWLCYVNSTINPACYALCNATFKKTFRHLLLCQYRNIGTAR

[13] = Toxicity in rat assessed as effect on autonomical parameters at 56.6 mg/kg, po measured after 6 hrs by Irwin test; type: organism-based; conditions: in vivo
[14] = Positive allosteric modulator activity at dog M2 receptor expressed in CHO cells co-expressing Gqi5 assessed as maximal response to ACh by calcium mobilization assay; type: cell-based
[15] = Ratio of unbound drug level in Sprague-Dawley rat brain to plasma at 1 to 10 mg/kg, po by LC-MS/MS analysis; type: ADME, organism-based; conditions: dose 1-10 mg/kg, read-out: K(p,uu,brain)
CYP3A4 (printed CYP34A) = CYP3A4 (printed CYP34A) (Homo sapiens, UniProt P08684); assay: Activation of CYP34A in human hepatocyte using midazolam as substrate preincubated for 5 days followed by substrate addition and measured after 1 hr by LC-MS/MS analysis relative to control; type: ADME, cell-based; conditions: hepatocytes, probe midazolam, time 121 hrs
CYP2B6 = molecular target: T3, CYP2B6 (Homo sapiens, UniProt P20813); assay: Activation of CYP2B6 in human hepatocyte using bupropion as substrate preincubated for 5 days followed by substrate addition and measured after 1 hr by LC-MS/MS analysis relative to control; type: ADME, cell-based; conditions: hepatocytes, probe bupropion, time 121 hrs
T3 sequence (P20813 whole entry): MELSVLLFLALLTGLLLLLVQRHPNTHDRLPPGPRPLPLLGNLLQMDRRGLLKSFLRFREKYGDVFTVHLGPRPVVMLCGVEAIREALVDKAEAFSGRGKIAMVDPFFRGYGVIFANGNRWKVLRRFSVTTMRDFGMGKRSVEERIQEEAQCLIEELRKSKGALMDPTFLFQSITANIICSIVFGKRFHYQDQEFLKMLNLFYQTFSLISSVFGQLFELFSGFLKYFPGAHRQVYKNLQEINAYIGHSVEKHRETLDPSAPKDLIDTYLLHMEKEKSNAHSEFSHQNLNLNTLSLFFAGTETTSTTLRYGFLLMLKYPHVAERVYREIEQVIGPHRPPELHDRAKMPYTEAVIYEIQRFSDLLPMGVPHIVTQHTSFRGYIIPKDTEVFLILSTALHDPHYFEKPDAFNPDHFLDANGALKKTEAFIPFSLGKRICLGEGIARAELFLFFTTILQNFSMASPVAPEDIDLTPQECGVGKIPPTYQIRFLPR

Cytochrome P450 3A4 = Cytochrome P450 3A4 (Homo sapiens, UniProt P08684); assay: […] of human CYP3A4 mediated drug metabolism incubated for 5 mins followed by NADPH addition measured after 1 hr by LC-UV/MS analysis relative to control; type: ADME; conditions: recombinant enzyme, 1.083 h, time 65 min
[16] = AUC (0 to infinity) in Beagle dog at 3 mg/kg,po by LC-MS/MS analysis; type: ADME, organism-based, Canis lupus familiaris; parameters: dose 3 mg/kg, route po; conditions: in vivo

Sequence of Cytochrome P450 3A4 (P08684 whole entry): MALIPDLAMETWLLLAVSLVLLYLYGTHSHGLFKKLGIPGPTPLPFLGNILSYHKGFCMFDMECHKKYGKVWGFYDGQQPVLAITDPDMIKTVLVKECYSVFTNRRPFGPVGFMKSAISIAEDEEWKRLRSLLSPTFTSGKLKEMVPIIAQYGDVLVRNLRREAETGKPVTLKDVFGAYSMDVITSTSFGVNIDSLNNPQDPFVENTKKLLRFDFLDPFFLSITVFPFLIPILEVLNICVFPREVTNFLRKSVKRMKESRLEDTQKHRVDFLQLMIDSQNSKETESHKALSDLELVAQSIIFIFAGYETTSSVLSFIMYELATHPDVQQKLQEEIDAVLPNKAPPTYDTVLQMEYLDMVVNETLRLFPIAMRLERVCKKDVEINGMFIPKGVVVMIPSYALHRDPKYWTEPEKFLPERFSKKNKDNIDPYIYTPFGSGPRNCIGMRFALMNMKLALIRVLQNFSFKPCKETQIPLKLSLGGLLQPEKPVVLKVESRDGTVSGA
Sequence of CYP3A4 (printed CYP34A) (P08684 whole entry): as above

Compound: COc1ccc(CNC(=O)c2sc3nnc(C)c(C)c3c2N)cc1F
- fraction unbound at 6 h [1]: 0.037
- bioavailability [2]: 79%
- Activity [3]: Non-Toxic
- Papp A→B [4]: 31 ×10⁻⁶ cm/s
- Activity (Rattus norvegicus): 43.2%
- half-life [5]: 1.3 h
- Drug uptake(free) [6]: 0.02 µM
- Cmax [7]: 220 nM
- half-life [8]: 4.2 h
- Activity [9]: 68.7%
- Kp [10]: 0.31
- Activity [11]: Non-Toxic
- Activity [12]: 80.6%
- Activity ([12]; tested as the 2H-labelled form): 87.1%
- Activity [13]: Non-Toxic
- EC50 [14]: > 30 µM
- Kp uu [15]: 0.37
- Emax at 1 h (CYP3A4 (printed CYP34A)): ≤ 1%
- Emax at 1 h (CYP2B6): ≤ 1%
- Activity (Cytochrome P450 3A4): 43.7%
- AUC(0-inf) [16]: 0.59 µM·h
